Here are results for 17 compounds from patent US8895571B2, “Isoindolinone and pyrrolopyridinone derivatives as Akt inhibitors” (Incyte Corporation, priority 2011, dated 2014).

Format in all cases: biochemical
One experiment deals with T1, Full length Akt1 (Homo sapiens, UniProt P31749).
T1 construct: Full length Akt1 (cat #P2999); purchased PerkinElmer P2999
In words: In vitro Akt kinase enzymatic assay (HTRF), Akt1. The conditions noted are these: 0.4 nM Akt1, substrate solution with 5 mM ATP, 25° C. 1 hr. On the procedure:
(§1) Compounds herein were tested for inhibitory activity of Akt targets according to the following in vitro assay. Full length Akt1 (cat #P2999), Akt2 (cat #PV3184), Akt3 (cat #PV3185), peptide substrate, Ulight-Crosstide (cat #TRF0106-M), Ultra-Europium anti-phospho-Crosstide (cat #TRF-0202-M), and 10×LANCE detection buffer (cat #CR97-100) were purchased from PerkinElmer. In general, assay buffer conditions were chosen based on obtaining optimal enzymatic and linear activities. The assay buffer contains 50 mM HEPES, 10 mM MgCl2, 5 mM DTT, 0.005% Tween20 at pH 7.8. Compound stock (0.001 mM) was prepared in DMSO. The compound plate was prepared by 3-fold and 11-point serial dilutions. 0.5 μL of the compound in DMSO was transferred from the compound plate to the assay plate. Enzyme solution (0.4 nM of Akt1, 0.6 nM of Akt2 or 0.6 nM of Akt3) was prepared in the assay buffer. Note that the enzyme concentration given is based on the given stock concentration reported by the vendor. 0.1 μM substrate solution was prepared in the assay buffer with addition of 5 mM ATP. 10 μL of the enzyme solution was added to the assay plate and then 10 μL of substrate solution was added to the assay plate. The plate was protected from light and the reaction was incubated at 25° C. for 1 hr. The reaction was stopped by adding 10 μL of a solution containing 30 mM EDTA, and 3 nM Ultra Europium anti-phospho Crosstide in 1× detection buffer. The plate was incubated for 15-30 min at room temperature and HTRF (homogenous time resolved fluorescence) was measured on a plate reader. Percentage of inhibition was calculated for each concentration and IC50 value was generated from curve fitting. See Table 8 for data related to compounds of the examples.
Background: Time-resolved FRET reads energy transfer from a long-lived donor to a nearby acceptor.

The target in another experiment is T2, Full length Akt2 (Homo sapiens, UniProt P31751).
T2 construct: Full length Akt1 (cat #P2999), Akt2 (cat #PV3184); purchased PerkinElmer PV3184
Description: In vitro Akt kinase enzymatic assay (HTRF), Akt2. As to conditions: 0.6 nM Akt2, substrate solution with 5 mM ATP, 25° C. 1 hr. On the procedure:
as §1

The target of the next experiment is T3, Full length Akt3 (Homo sapiens, UniProt Q9Y243).
T3 construct: Full length Akt1 (cat #P2999), Akt2 (cat #PV3184), Akt3 (cat #PV3185); purchased PerkinElmer PV3185
In words: In vitro Akt kinase enzymatic assay (HTRF), Akt3. As to conditions: 0.6 nM Akt3, substrate solution with 5 mM ATP, 25° C. 1 hr. On the procedure: as §1

The target of another experiment is T4, Full length PKA (Homo sapiens, UniProt P17612).
T4 construct: Full length PKA (cat #P2912); purchased Invitrogen P2912
Description: PKA in vitro enzymatic assay (HTRF). The conditions noted are these: 0.035 nM enzyme solution, substrate solution with 5 mM ATP, 25° C. 1 hr. On the procedure:
Full length PKA (cat #P2912), peptide substrate, fluorescein CREBtide peptide (cat #PV3508), Tb-Crebtide p-S133 Ab (cat #PV3566), and Lanthascreen TR-FRET Dilution Buffer stored (part # PV3574) were purchased from Invitrogen. In general, assay buffer conditions were chosen based on obtaining optimal and linear enzymatic activities. The assay buffer contains 50 mM HEPES, 10 mM MgCl2, 5 mM DTT, 0.005% Tween20 at pH 7.8. Compound stock (0.001 mM) was prepared in DMSO. The compound plate was prepared by 3-fold and 11-point serial dilutions. 0.5 μL of the compound in DMSO was transferred from the compound plate to the assay plate. 0.035 nM enzyme solution was prepared in the assay buffer. Note that the enzyme concentration given is based on the given stock concentration reported by the vendor. 0.1 μM substrate solution was prepared in the assay buffer with addition of 5 mM ATP. 10 μL of the enzyme solution was added to the assay plate and then 10 μL of substrate solution was added to the assay plate. The plate was protected from light and the reaction was incubated at 25° C. for 1 hr. The reaction was stopped by adding 10 μL of a solution containing 30 mM EDTA, and 1.5 nM Tb-Crebtide p-S133 Ab in 1× detection buffer. The plate was incubated for 15-30 min at room temperature and HTRF (homogenous time resolved fluorescence) was measured on a plate reader. Percentage of inhibition was calculated for each concentration and IC50 value was generated from curve fitting. See Table 8 for data related to compounds of the examples.

T2 sequence (P31751 whole entry): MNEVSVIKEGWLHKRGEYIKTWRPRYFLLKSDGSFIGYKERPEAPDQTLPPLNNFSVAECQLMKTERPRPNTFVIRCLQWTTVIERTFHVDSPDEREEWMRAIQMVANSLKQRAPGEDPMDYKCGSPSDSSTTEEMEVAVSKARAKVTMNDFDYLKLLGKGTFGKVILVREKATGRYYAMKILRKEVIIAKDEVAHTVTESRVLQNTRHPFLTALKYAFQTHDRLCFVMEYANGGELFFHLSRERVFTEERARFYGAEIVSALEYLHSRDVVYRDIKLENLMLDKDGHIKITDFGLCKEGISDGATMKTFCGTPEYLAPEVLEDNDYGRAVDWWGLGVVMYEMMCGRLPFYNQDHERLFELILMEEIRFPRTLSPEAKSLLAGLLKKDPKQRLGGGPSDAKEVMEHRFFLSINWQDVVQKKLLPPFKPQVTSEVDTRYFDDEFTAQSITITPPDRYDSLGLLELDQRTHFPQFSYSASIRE
T1 sequence (P31749 whole entry): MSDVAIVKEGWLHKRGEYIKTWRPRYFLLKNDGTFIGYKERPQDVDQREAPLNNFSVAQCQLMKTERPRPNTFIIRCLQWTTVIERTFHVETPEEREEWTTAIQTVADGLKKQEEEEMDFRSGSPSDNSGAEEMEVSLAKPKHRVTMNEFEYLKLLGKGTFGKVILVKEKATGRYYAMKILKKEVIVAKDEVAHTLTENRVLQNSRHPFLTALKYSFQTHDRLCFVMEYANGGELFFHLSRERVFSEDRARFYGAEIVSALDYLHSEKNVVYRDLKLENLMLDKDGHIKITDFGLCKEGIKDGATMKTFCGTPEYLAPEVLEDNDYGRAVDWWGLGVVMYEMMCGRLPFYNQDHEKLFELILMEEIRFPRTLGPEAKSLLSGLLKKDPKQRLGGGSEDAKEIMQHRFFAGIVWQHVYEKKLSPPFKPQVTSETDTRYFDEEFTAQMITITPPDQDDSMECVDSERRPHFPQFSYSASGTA
T3 sequence (Q9Y243 whole entry): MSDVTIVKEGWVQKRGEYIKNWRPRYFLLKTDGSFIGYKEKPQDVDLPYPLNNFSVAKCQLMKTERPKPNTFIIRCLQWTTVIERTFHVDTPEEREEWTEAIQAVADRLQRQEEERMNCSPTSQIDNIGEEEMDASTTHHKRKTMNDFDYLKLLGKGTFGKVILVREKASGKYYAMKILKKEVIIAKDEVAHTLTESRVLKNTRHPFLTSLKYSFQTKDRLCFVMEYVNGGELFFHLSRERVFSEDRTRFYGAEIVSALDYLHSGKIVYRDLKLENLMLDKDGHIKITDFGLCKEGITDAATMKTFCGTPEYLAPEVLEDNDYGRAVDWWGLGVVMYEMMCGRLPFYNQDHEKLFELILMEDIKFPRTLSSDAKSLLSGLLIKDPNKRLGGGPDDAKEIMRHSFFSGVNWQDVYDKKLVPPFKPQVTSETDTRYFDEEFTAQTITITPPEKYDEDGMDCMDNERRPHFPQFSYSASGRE

Regarding `Cn1ncc(Cl)c1-c1ccc2c(c1)CN([C@H](CNC1CC1)Cc1cccc(F)c1)C2=O` [Example 33, 5-(4-chloro-1-methyl-1H-pyrazol-5-yl)-2-[(1S)-2-(cyclopropylamino)-1-(3-fluorobenzyl)ethyl]isoindolin-1-one], the IC50 (commonly the point on the concentration scale where inhibition reaches its midpoint) is less than 0.5 µM against Full length Akt1, 0.5 to 5 µM against Full length Akt2, 0.5 to 5 µM against Full length Akt3 and greater than 5 µM against Full length PKA.

In the case of `Cn1ncc(Cl)c1-c1ccc2c(c1)CN([C@H](CNC1CCC1)Cc1cccc(F)c1)C2=O` [Example 34, 5-(4-chloro-1-methyl-1H-pyrazol-5-yl)-2-[(1S)-2-(cyclobutylamino)-1-(3-fluorobenzyl)ethyl]isoindolin-1-one], the IC50 is less than 0.5 µM against Full length Akt1, 0.5 to 5 µM against Full length Akt2, 0.5 to 5 µM against Full length Akt3 and greater than 5 µM at Full length PKA.

`CSCc1cnn(C)c1-c1cc2c(cn1)C(=O)N([C@H](CN)Cc1cccc(F)c1)C2` [Example 99, 2-[(1S)-2-amino-1-(3-fluorobenzyl)ethyl]-6-[4-(methylthiomethyl)-1-methyl-1H-pyrazol-5-yl]-1,2-dihydro-3H-pyrrolo[3,4-c]pyridin-3-one]: the half-maximal inhibitory concentration (IC50) against Full length Akt1 is less than 0.5 µM; against Full length Akt2, 0.5 to 5 µM; against Full length Akt3 it was 0.5 to 5 µM; against Full length PKA it was greater than 5 µM.

`CCNC[C@H](Cc1cccc(F)c1)N1Cc2cc(-c3c(Cl)cnn3C)ccc2C1=O` [Example 31, 5-(4-chloro-1-methyl-1H-pyrazol-5-yl)-2-[(1S)-2-(ethylamino)-1-(3-fluorobenzyl)ethyl]isoindolin-1-one]: the IC50 against Full length Akt1 was less than 0.5 µM; against Full length Akt2 it was 0.5 to 5 µM; against Full length Akt3, 0.5 to 5 µM; against Full length PKA it was greater than 5 µM.

For `Cn1ncc(Cl)c1-c1ncc2c(n1)CN([C@H](CN)Cc1ccccc1)C2=O` [Example 113, 6-[(1S)-2-amino-1-benzyl-ethyl]-2-(4-chloro-1-methyl-1H-pyrazol-5-yl)-6,7-dihydro-5H-pyrrolo[3,4-d]pyrimidin-5-one], the IC50 at Full length Akt1 was less than 0.5 µM; at Full length Akt2, 0.5 to 5 µM; at Full length Akt3, 0.5 to 5 µM; against Full length PKA, greater than 5 µM.

With `COc1cccc(C(CN)N2Cc3cc(-c4ccnn4C)ccc3C2=O)c1` (centres unmarked) [Example 119, 2-[2-amino-1-(3-methoxyphenyl)ethyl]-5-(1-methyl-1H-pyrazol-5-yl)isoindolin-1-one], the IC50 was less than 0.5 µM against Full length Akt1, less than 0.5 µM against Full length Akt2, 0.5 to 5 µM against Full length Akt3 and 0.5 to 5 µM at Full length PKA.

`Cn1nccc1-c1cnn(C)c1-c1ccc2c(c1)CN([C@H](CN)Cc1cccc(F)c1)C2=O` [Example 17, 2-[(1S)-2-amino-1-(3-fluorobenzyl)ethyl]-5-(1′,2-dimethyl-1′H,2H-3,4′-bipyrazol-5′-yl)isoindolin-1-one]: the IC50 against Full length Akt1, against Full length Akt2, against Full length Akt3 and against Full length PKA was greater than 5 µM each time.

For `CN1CCC(NC[C@H](Cc2cccc(F)c2)N2Cc3cc(-c4c(Cl)cnn4C)ccc3C2=O)CC1` [Example 37, 5-(4-chloro-1-methyl-1H-pyrazol-5-yl)-2-{(1S)-1-(3-fluorobenzyl)-2-[(1-methylpiperidin-4-yl)amino]ethyl}isoindolin-1-one], the half-inhibitory concentration (IC50) was less than 0.5 µM on Full length Akt1, 0.5 to 5 µM against Full length Akt2, 0.5 to 5 µM against Full length Akt3 and greater than 5 µM against Full length PKA.

As to `Cn1nccc1-c1ccc2c(n1)CN([C@H](CN)Cc1cccc(F)c1)C2=O` [Example 110, 6-[(1S)-2-amino-1-(3-fluorobenzyl)ethyl]-2-(1-methyl-1H-pyrazol-5-yl)-6,7-dihydro-5H-pyrrolo[3,4-b]pyridin-5-one], the IC50 against Full length Akt1 is less than 0.5 µM; at Full length Akt2, 0.5 to 5 µM; on Full length Akt3 it was 0.5 to 5 µM; on Full length PKA, greater than 5 µM.

As to `Cn1ncc(Cl)c1-c1ccc2c(c1)CN([C@H](CN)Cc1cccc(-c3ccsc3)c1)C2=O` [Example 71, 2-{(1S)-2-amino-1-[3-(3-thienyl)benzyl]ethyl}-5-(4-chloro-1-methyl-1H-pyrazol-5-yl)isoindolin-1-one], the concentration for half-maximal inhibition (IC50) is less than 0.5 µM on Full length Akt1, 0.5 to 5 µM against Full length Akt2, 0.5 to 5 µM at Full length Akt3 and greater than 5 µM at Full length PKA.

Take `Cn1nccc1-c1ccc2c(c1)CN(C(CN)c1ccc(F)cc1)C2=O` (centres unmarked) [Example 118, 2-[2-amino-1-(4-fluorophenyl)ethyl]-5-(1-methyl-1H-pyrazol-5-yl)isoindolin-1-one]: the IC50 on Full length Akt1 is less than 0.5 µM; on Full length Akt2, 0.5 to 5 µM; against Full length Akt3, greater than 5 µM; against Full length PKA, greater than 5 µM.

On to `Cn1nccc1-c1ccc2c(c1)CN([C@H](CN)Cc1cscn1)C2=O` [Example 82, 2-[(1S)-2-amino-1-(1,3-thiazol-4-ylmethyl)ethyl]-5-(1-methyl-1H-pyrazol-5-yl)isoindolin-1-one], for which the IC50 at Full length Akt1 was less than 0.5 µM; against Full length Akt2 it was 0.5 to 5 µM; against Full length Akt3, 0.5 to 5 µM; against Full length PKA it was greater than 5 µM.

On to `Cn1cc(-c2cccc(C[C@@H](CN)N3Cc4cc(-c5ccnn5C)ccc4C3=O)c2)cn1` [Example 83, 2-{(1S)-2-amino-1-[3-(1-methyl-1H-pyrazol-4-yl)benzyl]ethyl}-5-(1-methyl-1H-pyrazol-5-yl)isoindolin-1-one], for which the IC50 was 0.5 to 5 µM at Full length Akt1, 0.5 to 5 µM against Full length Akt2, greater than 5 µM against Full length Akt3 and greater than 5 µM against Full length PKA.

As to `CCN(CC)C[C@H](Cc1cccc(F)c1)N1Cc2cc(-c3c(Cl)cnn3C)ccc2C1=O` [Example 39, 5-(4-chloro-1-methyl-1H-pyrazol-5-yl)-2-[(1S)-2-(diethylamino)-1-(3-fluorobenzyl)ethyl]isoindolin-1-one], the IC50 at Full length Akt1 was less than 0.5 µM; on Full length Akt2 it was greater than 5 µM; at Full length Akt3, 0.5 to 5 µM; on Full length PKA, greater than 5 µM.

As for `Cn1ncc(Cl)c1-c1ccc2c(c1)CN([C@H](CN)CC1CC1)C2=O` [Example 137, 2-[(1S)-2-amino-1-(cyclopropylmethyl)ethyl]-5-(4-chloro-1-methyl-1H-pyrazol-5-yl)isoindolin-1-one], the IC50 is 0.5 to 5 µM against Full length Akt1, 0.5 to 5 µM at Full length Akt2, 0.5 to 5 µM against Full length Akt3 and greater than 5 µM against Full length PKA.

For `Cn1ncc(Cl)c1-c1ccc2c(c1)CN([C@H](CNC1CCOCC1)Cc1cccc(F)c1)C2=O` [Example 36, 5-(4-chloro-1-methyl-1H-pyrazol-5-yl)-2-[(1S)-1-(3-fluorobenzyl)-2-(tetrahydro-2H-pyran-4-ylamino)ethyl]isoindolin-1-one], the IC50 on Full length Akt1 was 0.5 to 5 µM; against Full length Akt2, 0.5 to 5 µM; at Full length Akt3, greater than 5 µM; on Full length PKA, greater than 5 µM.

For `CCCOCc1cnn(C)c1-c1cc2c(cn1)C(=O)N([C@H](CN)Cc1cccc(F)c1)C2` [Example 96, 2-[(1S)-2-amino-1-(3-fluorobenzyl)ethyl]-6-[4-(1-propoxymethyl)-1-methyl-1H-pyrazol-5-yl]-1,2-dihydro-3H-pyrrolo[3,4-c]pyridin-3-one], the IC50 was less than 0.5 µM against Full length Akt1, less than 0.5 µM against Full length Akt2, less than 0.5 µM on Full length Akt3 and greater than 5 µM at Full length PKA.
